Experimental data: US5750321A, “Process for buffering concentrated aqueous slurries” (priority 1997, dated 1998)
Entries after “also recorded” stand apart in the source; their conditions may differ. Like-named read-outs stand apart in the source and are kept apart here. Values belong to the molecule of their own block, whether it stands above or below them.

Experiments:
[1] = Buffering of S1 slurry: pH measured after additions of aqueous buffering salt; assay type: physicochemical; settings: small additions of 0.1 mole/L salt to S1 slurry
[2] = Langmuir 8, 291 (1992), cited from earlier work
[3] = Electroacoustic sonic amplitude (ESA) electrokinetics of dye slurries as a function of pH; assay type: physicochemical
[4] = Table 1; cited from earlier work
[5] = FD2 slurry without surfactant, Texter

SMILES: O=C([O-])c1ccccc1O.[Na+] [sodium salicylate]
effect on slurry pH / pH control (in words) [1]: provides some pH control

SMILES: CC1=NN(c2ccc(C(=O)O)cc2)C(=O)C1=Cc1c(C)nn(-c2ccc(C(=O)O)cc2)c1O [FD2]
pH interval of abrupt S-shaped ESA transition [2, 5]: 4-6 pH
predominately carboxy group-based surface pKa [2, 5]: about 5.0
intrinsic electrokinetic charge ([2]; sign of charge, shown earlier by Texter): negative

SMILES: CC(=O)O [sodium acetate]
effect on slurry pH / pH control (in words) [1]: increases the slurry pH to a significant extent; also recorded: significantly increases the slurry pH

lowest apparent pKa relative to FD2 ([3]; FD1 slurries compared with FD2): three pH units lower
lowest apparent pKa ([3]; FD1 slurries without dispersing aid, FIG. 2): about 2
solubility of the dye with increasing pH ([3]; above pH 5, upturn in ESA): marked increased solubility
intrinsic electrokinetic charge ([3]; sign of charge, ESA): negative
SMILES: CC1=NN(c2ccc(C(=O)O)cc2)C(=O)C1=CC=Cc1c(C)nn(-c2ccc(C(=O)O)cc2)c1O [FD1]

SMILES: O=C(O)c1ccccc1 [sodium benzoate]
effect on slurry pH / pH control (in words) [1]: very effective at providing significant pH control at relatively low concentrations

SMILES: O=S1(=O)CCCCN1
pKa at 25° C. [4]: 12.02

SMILES: O=C(O)c1ccco1 [Furoic acid]
pKa at 25° C. [4]: 3.17
